# Reference: patent US20180280480A1, “COMPOSITIONS AND PEPTIDES HAVING DUAL GLP-1R AND GLP-2R AGONIST ACTIVITY” (priority 2014, published 2018)
# Marks after values point to notes of the source that are not given here.
# Experiments:
# Type in all cases: in vivo
# [1] = tested on: diabetic db/db (BKS.Cg-m+/+Leprdb/J) male mice; assay: Intestinal volume and surface area (stereology) in diabetic db/db mice; conditions: for Large intestine surface area / Large intestine volume / Small intestine surface area / Small intestine volume: Day 58, mean ± S.E.M.
# Procedure: A total of forty-six (46) diabetic db/db (BKS.Cg-m+/+Leprdb/J) male mice, 5 weeks old at arrival, was obtained from Janvier (France). […] They were housed in groups of n=2 in a light-, temperature-, and humidity-controlled room (12-hour light: 12-hour dark cycle, lights On/Off at 04.00/16.00 h; 22±1° C.; 50±10% relative humidity). During the habituation period animals was accustomed to the experimental paradigm.
# (§1) Baseline, free fed blood glucose samples were obtained bi-weekly prior to study start (blood was collected from the tail vein) in order to screen for the diabetic state. The 40 animals closest to the mean BG/BW value at day −3 were randomized into 4 groups (n=10/group; the remaining 6 animals was be discarded from the main study): Group 1: Vehicle, BID, SC. […] During day 0-58 of the experiment, animals received a subcutaneous dosing twice daily at 06.00-08.00 hours and again between 02.00-04.00 hours. Dose volume was 5 ml/kg.
# At the end of the study period mice were terminated by decapitation under isoflurane anaesthesia. The entire intestine was dissected out and divided into small and large which was then measured in length.
# [2] = tested on: diabetic db/db (BKS.Cg-m+/+Leprdb/J) male mice; assay: Fed blood glucose and HbA1c in diabetic db/db mice; conditions: for Blood glucose, fed state / HbA1c: Day 56, mean ± S.E.M.
# Procedure: A total of forty-six (46) diabetic db/db (BKS.Cg-m+/+Leprdb/J) male mice, 5 weeks old at arrival, was obtained from Janvier (France). The mice were acclimatized for two weeks in their new environment with free access to normal chow (Altromin 1324, Brogaarden A/S, Gentofte, Denmark) and domestic quality tap water. They were housed in groups of n=2 in a light-, temperature-, and humidity-controlled room (12-hour light: 12-hour dark cycle, lights On/Off at 04.00/16.00 h; 22±1° C.; 50±10% relative humidity). During the habituation period animals was accustomed to the experimental paradigm.
# as §1, with “SC. Group 2: SEQ ID NO 6, 50 nmol/kg, BID, SC. Group 3: SEQ ID NO 6, 250 nmol/kg, BID, SC.” for “SC.”
# On experimental day 56 an oral glucose tolerance test was performed. Animals were mildly fasted as food was removed 4 hours prior to administration of the glucose bolus. Compounds were administered 45 minutes prior to the OGTT. At t=0, mice received an oral glucose load of 2 g/kg glucose (Glucose 200 mg/ml, Fresenius Kabi, Sweden). Glucose was given as gavage via a gastrically placed tube connected to a syringe ensuring accurate dosing. Blood samples were collected from the tail vein and blood-glucose was measured at time points −60, 0, 15, 30, 60, 120 and 240 minutes after the glucose administration. Samples for measuring HbA1c was taken in parallel with blood glucose at t=−60 minutes. Mice were re-fed after the last blood sampling.
# C57BL/6J mice [3] = assay: GLP1R-GLP2R dual agonist compound study: cumulative food intake
# Source text: Forty (40, n=10, 4 groups) male C57BL/6J mice obtained from Taconic, Denmark, were used. At the time of the experiment, the mice had reached an age of 9-10 weeks. The mice were acclimatized for one week in their new environment and offered regular chow diet (Altromin 1324, Brogaarden A/S, Denmark) and domestic quality tap water. Animals were housed two per cage during the study, in a light-, temperature-, and humidity-controlled room (12-hour light: 12-hour dark cycle, lights on/off at 4 AM/4 PM hour; 22±1° C.; 50±10% relative humidity). […] Animals were uniquely identified with implantable microchips (Pet ID Microchip, E-vet) in all mice upon arrival. Animals were identified using the WS-2 weight station (MBrose ApS, Faaborg, Denmark) connected to a laptop running the HM02Lab software (Ellegaard Systems, Faaborg, Denmark). The HM02Lab software matches the body weight with ID and calculates the dose directly based on the body weight. All mice were handled for 3 days prior to the experiment to acclimatize the animals to handling and injections.
# C57BL/6J mice [4] = assay: GLP1R-GLP2R dual agonist compound study: oral glucose tolerance test
# Procedure: On day 7, an oral glucose tolerance test (OGTT) was performed. Animals were mildly fasted as all food was removed 4 hours prior to the oral glucose load. Vehicle (SC) and compounds were administered subcutaneously (SC) 2 hours prior to the OGTT. At t=0 mice received an oral glucose load (2 g/kg; 4 ml/kg; 500 mg/ml, Fresenius Kabi, Sweden). Glucose was given as gavage via a gastrically-placed tube connected to a syringe ensuring accurate dosing. Blood glucose was measured from tail vein blood before glucose (at t=−120 and 0 min, baseline) and after glucose administration at t=15, 30, 60 and 120 min. Blood samples (tail vein) was collected into 10 μl heparinized glass capillary tubes and immediately suspended in buffer (0.5 ml of glucose/lactate system solution (EKF-diagnostics, Germany) and analyzed for glucose on the test day using a BIOSEN c-Line glucose meter (EKF-diagnostics, Germany) according to manufacturer's instructions. Results from the OGTT are listed below in Table 11.
substance,measurement,setting,value
R^1-HGDGSFTSELSTYLDALAARDFIAWLIQTKITDR^2 [SEQ ID NO 6],effect on small intestine volume and surface area,"[1]; 8 weeks of treatment, 50 and 250 nmol/kg",marked increase in small intestine volume as well as surface area
same,Large intestine surface area,[1]; 50 nmol/kg BID SC,3.6 ± 1.2 cm^2
same,Large intestine volume,[1]; 50 nmol/kg BID SC,274.2 ± 7.0 mm^3
same,Small intestine surface area,[1]; 50 nmol/kg BID SC,348.9 ± 10.8*** cm^2
same,Small intestine volume,[1]; 50 nmol/kg BID SC,2097 ± 72.7*** mm^3
same,Large intestine surface area,[1]; 250 nmol/kg BID SC,18.6 ± 1.9 cm^2
same,Large intestine volume,[1]; 250 nmol/kg BID SC,288.2 ± 23.7 mm^3
same,Small intestine surface area,[1]; 250 nmol/kg BID SC,344.0 ± 20.8*** cm^2
same,Small intestine volume,[1]; 250 nmol/kg BID SC,2043 ± 62.3*** mm^3
same,"effect on fed-state blood glucose, HbA1c and glucose tolerance","[2]; 8 weeks of treatment, db/db mice","reduction in fed-state blood glucose, HbA1c levels as well as an improving of glucose tolerance in a dose dependent manner"
same,"Blood glucose, fed state",[2]; 50 nmol/kg BID SC,7.2 ± 1.0 mmol/L
same,HbA1c,[2]; 50 nmol/kg BID SC,5.0 ± 0.2 %
same,"Blood glucose, fed state",[2]; 250 nmol/kg BID SC,5.9 ± 0.4 mmol/L
same,HbA1c,[2]; 250 nmol/kg BID SC,4.4 ± 0.1 %
same,Cumulative food intake,"C57BL/6J mice [3]; Day 0-7, 3.0 mg/kg BID SC, mean ± S.E.M.",21.96 ± 1.46 g
same,cumulative food intake compared to vehicle and teduglutide,C57BL/6J mice [3]; dosed twice daily for 7 days,considerably reduced cumulative food intake
same,"Oral glucose tolerance test AUC, 0-120 min","C57BL/6J mice [4]; Day 7, 3.0 mg/kg BID SC, glucose 2 g/kg oral, mean ± S.E.M.",523 ± 112 mmol·min/L
same,blood glucose compared to vehicle and teduglutide,C57BL/6J mice [4]; dosed twice daily for 7 days,significantly reduced fasting blood glucose
